These results are taken from patent US6274557A, “Inhibition of nitric oxide synthase by amino acids and dipeptides” (Northwestern University, priority 1999, dated 2001).

The target in assay [1] is neuronal nitric oxide synthase (nNOS) from bovine brain (Bos taurus, UniProt A0A3Q1M6M2). Description: Hemoglobin capture assay of nitric oxide formation, nNOS. The note with it: for most potent inhibitors (based on isoform inhibition data): dipeptide amides of Table 3; for nNOS/iNOS selectivity / nNOS/eNOS selectivity: Table 2 dipeptides; for nNOS/iNOS selectivity: in favor of nNOS over iNOS; for nNOS/eNOS selectivity: nNOS over eNOS; for time-dependent inhibition of any of the isoforms: nNOS, iNOS and eNOS.
Chain of neuronal nitric oxide synthase (nNOS) from bovine brain (A0A3Q1M6M2 entry or part of it): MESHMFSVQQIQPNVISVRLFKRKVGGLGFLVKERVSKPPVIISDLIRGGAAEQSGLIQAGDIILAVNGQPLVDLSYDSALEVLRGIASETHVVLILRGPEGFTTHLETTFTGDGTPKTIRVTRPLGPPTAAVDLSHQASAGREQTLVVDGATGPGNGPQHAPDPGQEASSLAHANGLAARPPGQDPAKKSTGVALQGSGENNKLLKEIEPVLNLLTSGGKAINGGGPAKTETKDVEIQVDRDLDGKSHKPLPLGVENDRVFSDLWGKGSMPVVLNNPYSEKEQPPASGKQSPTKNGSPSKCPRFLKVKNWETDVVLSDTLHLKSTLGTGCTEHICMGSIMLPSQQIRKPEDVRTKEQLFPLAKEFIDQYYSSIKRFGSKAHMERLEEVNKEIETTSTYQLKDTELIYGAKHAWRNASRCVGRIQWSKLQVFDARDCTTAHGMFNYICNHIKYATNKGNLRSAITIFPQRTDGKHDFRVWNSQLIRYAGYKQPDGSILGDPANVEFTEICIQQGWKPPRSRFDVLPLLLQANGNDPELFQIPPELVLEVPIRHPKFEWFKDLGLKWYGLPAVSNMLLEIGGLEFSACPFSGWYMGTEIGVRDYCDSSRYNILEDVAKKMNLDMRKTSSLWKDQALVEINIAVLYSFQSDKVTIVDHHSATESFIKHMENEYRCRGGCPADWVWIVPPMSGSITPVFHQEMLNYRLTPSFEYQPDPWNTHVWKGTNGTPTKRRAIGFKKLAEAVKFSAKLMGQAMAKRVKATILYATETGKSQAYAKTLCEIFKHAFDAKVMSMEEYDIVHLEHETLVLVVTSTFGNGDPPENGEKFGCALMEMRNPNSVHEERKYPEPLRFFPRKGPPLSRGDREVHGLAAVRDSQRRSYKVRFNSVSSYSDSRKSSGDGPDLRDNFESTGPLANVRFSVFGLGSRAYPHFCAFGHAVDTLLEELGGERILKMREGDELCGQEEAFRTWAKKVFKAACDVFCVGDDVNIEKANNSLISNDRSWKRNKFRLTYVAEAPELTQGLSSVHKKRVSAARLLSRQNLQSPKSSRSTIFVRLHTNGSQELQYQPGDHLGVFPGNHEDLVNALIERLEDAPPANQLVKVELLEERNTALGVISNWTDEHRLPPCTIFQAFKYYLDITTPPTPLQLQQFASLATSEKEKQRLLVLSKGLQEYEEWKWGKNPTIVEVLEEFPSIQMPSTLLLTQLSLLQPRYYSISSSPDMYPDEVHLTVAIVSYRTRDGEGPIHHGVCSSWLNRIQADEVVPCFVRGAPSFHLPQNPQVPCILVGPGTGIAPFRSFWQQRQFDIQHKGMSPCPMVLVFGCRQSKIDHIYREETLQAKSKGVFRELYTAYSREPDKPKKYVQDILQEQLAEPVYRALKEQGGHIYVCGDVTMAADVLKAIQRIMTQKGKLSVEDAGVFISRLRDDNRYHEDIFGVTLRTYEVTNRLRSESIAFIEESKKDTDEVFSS
Experimental: (§1) Nitric oxide formation was measured by using the hemoglobin capture assay. […] The production of nitric oxide by eNOS was measured as described. […] All assays were in a final volume of 600 μL and were initiated with enzyme.
(§2) The reversible inhibition of NOS by the dipeptide analogs was studied under initial rate conditions with the hemoglobin assay as described above. […] With various L-arginine and inhibitor concentrations.

The target in assay [2] is T1, recombinant bovine endothelial nitric oxide synthase (eNOS) (Bos taurus, UniProt P29473).
T1 construct: made in house; host or cells: E. coli
In words: Hemoglobin capture assay of nitric oxide formation, eNOS. Format: biochemical. The following applies: for selectivity of eNOS over iNOS: Table 2 dipeptides.
Experimental: as §1, §2

In assay [3] the target is recombinant murine macrophage nitric oxide synthase (iNOS) (Mus musculus, UniProt P29477). Description: Hemoglobin capture assay of nitric oxide formation, iNOS. The following applies: for iNOS/eNOS selectivity: Table 2 dipeptides.
Experimental: as §1, §2
Setting [4] is: read-out: Ki nNOS, Table 2, Dixon plots.
Where [5] appears, read: read-out: Ki iNOS, Table 2, Dixon plots, ^a = uncompetitive inhibition.

Where “and” joins values, the source holds several entries; their conditions need not be identical. Equal values may be shown once. Read-outs that look alike come from different tables or passages of the source. Peptide text beside a SMILES is read from it.

As for `N=C(NCCC[C@@H](NC(=O)[C@H](N)CCCCN)C(N)=O)N[N+](=O)[O-]` [D-Lys-D-nitroArg] (HELM PEPTIDE1{[dK].[N=C(NCCC[C@@H](N[*:1])C(=O)[*:2])N[N+](=O)[O-]].[am]}$$$$V2.0), in assay [1], the “most potent inhibitors (based on isoform inhibition data)” value (“most potent inhibitors” for short) was “most potent”.
Regarding `N=C(NCCC[C@@H](NC(=O)[C@H](N)CCCN)C(N)=O)N[N+](=O)[O-]` [D-Orn-D-nitroArg] (HELM PEPTIDE1{[NCCC[C@@H](N)C(=O)[*:2]].[N=C(NCCC[C@@H](N[*:1])C(=O)[*:2])N[N+](=O)[O-]].[am]}$$$$V2.0), the “most potent inhibitors” value in assay [1] was “most potent”.
Same read-out and setting: then `N=C(NCCC[C@@H](NC(=O)[C@@H](N)Cc1cnc[nH]1)C(N)=O)N[N+](=O)[O-]` [L-His-D-nitroArg] (HELM PEPTIDE1{H.[N=C(NCCC[C@@H](N[*:1])C(=O)[*:2])N[N+](=O)[O-]].[am]}$$$$V2.0), with “most potent”; and `N=C(NCCC[C@@H](NC(=O)[C@@H](N)CCCCN)C(N)=O)N[N+](=O)[O-]` [L-Lys-D-nitroArg] (HELM PEPTIDE1{K.[N=C(NCCC[C@@H](N[*:1])C(=O)[*:2])N[N+](=O)[O-]].[am]}$$$$V2.0), with “most potent”.
Same read-out and setting: the entry for `N=C(NCCC[C@H](N)C(=O)N[C@H](CC(N)=O)C(N)=O)N[N+](=O)[O-]` [L-nitroArg-D-Asn] (HELM PEPTIDE1{[N=C(NCCC[C@H](N)C(=O)[*:2])N[N+](=O)[O-]].[dN].[am]}$$$$V2.0) is “most potent”; for `N=C(NCCC[C@H](N)C(=O)N[C@H](CCC(N)=O)C(N)=O)N[N+](=O)[O-]` [L-nitroArg-D-Gln] (HELM PEPTIDE1{[N=C(NCCC[C@H](N)C(=O)[*:2])N[N+](=O)[O-]].[dQ].[am]}$$$$V2.0) it is “most potent”.
Consider `N=C(NCCC[C@H](N)C(=O)N[C@@H](CCN)C(=O)O)N[N+](=O)[O-]` [L-nitroArg-L-Dbu, L-nitroArg-L-2,4-diaminobutanoic acid] (HELM PEPTIDE1{[N=C(NCCC[C@H](N)C(=O)[*:2])N[N+](=O)[O-]].[Dab]}$$$$V2.0), for which the “most potent inhibitors” value in assay [1] is “most potent”.
Same read-out and setting: then `N=C(NCCC[C@H](N)C(=O)N[C@@H](CN)C(=O)O)N[N+](=O)[O-]` [L-nitroArg-L-Dpr, L-nitroArg-L-2,3-diaminopropanoic acid] (HELM PEPTIDE1{[N=C(NCCC[C@H](N)C(=O)[*:2])N[N+](=O)[O-]].[NC[C@H](N[*:1])C(=O)O]}$$$$V2.0), with “most potent”.
What is called Ki is a dissociation constant, usually derived from enzyme kinetics or from competition with a known ligand. `C=CCNC(=N)NCCC[C@H](N)C(=O)O` [allyl, N^ω -allyl-L-arginine, reference compound]: the values for the Ki in assay [1], in assay [2] (Table 1) and in assay [3] were 0.2 µM, 3.1 µM and 2.1 µM, respectively. Besides, the “Selectivity nNOS/eNOS” value in assay [1] was 15 and 15.5.
For `N=C(NCCC[C@H](N)C(=O)N[C@@H](Cc1ccccc1)C(=O)O)N[N+](=O)[O-]` [compound 1, L-Arg^NO2 L-Phe], in assay [1], the nNOS/iNOS selectivity is 8.9, the nNOS/eNOS selectivity amounted to 21.9 and the “time-dependent inhibition of any of the isoforms” value (“time-dependent inhibition” for short) is reported as “None”. For the same compound, the Ki in assay [1] (setting [4]) stood at 18 µM. For the same compound, the Ki in assay [2] (Table 2, Dixon plots) amounted to 395 µM. In assay [3], the iNOS/eNOS selectivity was determined as 2.5. Also, the Ki in assay [3] (setting [5]) stood at 160 µM.
Take `N=C(NCCC[C@H](NC(=O)[C@@H](N)Cc1ccccc1)C(=O)O)N[N+](=O)[O-]` [compound 2, L-Phe-L-Arg^NO2] (HELM PEPTIDE1{F.[N=C(NCCC[C@H](N[*:1])C(=O)O)N[N+](=O)[O-]]}$$$$V2.0): in assay [1], the nNOS/iNOS selectivity worked out at 0.66, the nNOS/eNOS selectivity is given as 3.5 and the “time-dependent inhibition” value was “None”. In assay [1] (setting [4]), the Ki worked out at 140 µM. Moreover, the Ki in assay [2] (Table 2, Dixon plots) was 490 µM. The iNOS/eNOS selectivity in assay [3] was 5.3. Besides, the Ki in assay [3] (setting [5]) came out at 93 µM.
In the case of `COC(=O)[C@H](Cc1ccccc1)NC(=O)[C@@H](N)CCCNC(=N)N[N+](=O)[O-]` [compound 3, L-Arg^NO2 -L-Phe-OMe], the nNOS/iNOS selectivity in assay [1] was found to be 3.2. In addition, the nNOS/eNOS selectivity in assay [1] came to 28.6. The Ki stood at 14 µM in assay [1] (setting [4]); 400 µM in assay [2] (Table 2, Dixon plots); 45 µM in assay [3] (setting [5]). Besides, the iNOS/eNOS selectivity in assay [3] is given as 8.9.
The compound `COC(=O)[C@H](CCCNC(=N)N[N+](=O)[O-])NC(=O)[C@@H](N)Cc1ccccc1` [compound 4, L-Phe-L-Arg^NO2 -OMe] (HELM PEPTIDE1{F.[N=C(NCCC[C@H](N[*:1])C(=O)[*:2])N[N+](=O)[O-]].[CO[*:1]]}$$$$V2.0) yielded a nNOS/iNOS selectivity in assay [1] of 0.55. In assay [1], this compound yielded a nNOS/eNOS selectivity of 3.6. The Ki in assay [1] (setting [4]) worked out at 370 µM; in assay [2] (Table 2, Dixon plots) it was 1350 µM; in assay [3] (setting [5]), 204 µM. In addition, the iNOS/eNOS selectivity in assay [3] stood at 6.6.
The compound `N=C(NCCC[C@H](N)C(=O)N[C@@H](Cc1ccccc1)C(=O)OCc1ccccc1)N[N+](=O)[O-]` [compound 5, L-Arg^NO2 -L-Phe-OBn] showed a nNOS/iNOS selectivity in assay [1] of 0.33. For the same compound, the nNOS/eNOS selectivity in assay [1] is on record as 2.3. The Ki in assay [1] (setting [4]) stood at 55 µM; in assay [2] (Table 2, Dixon plots) it was 125 µM; in assay [3] (setting [5]), 18 µM. For the same compound, in assay [3], the iNOS/eNOS selectivity stood at 6.9.
Compound `N=C(NCCC[C@H](NC(=O)[C@@H](N)Cc1ccccc1)C(=O)OCc1ccccc1)N[N+](=O)[O-]` [compound 6, L-Phe-L-Arg^NO2 -OBn] (HELM PEPTIDE1{F.[N=C(NCCC[C@H](N[*:1])C(=O)[*:2])N[N+](=O)[O-]].[c1ccc(CO[*:1])cc1]}$$$$V2.0) gave a nNOS/iNOS selectivity in assay [1] of 0.41. The nNOS/eNOS selectivity in assay [1] came to 2.3. Also, the Ki in assay [1] (setting [4]) worked out at 110 µM; in assay [2] (Table 2, Dixon plots) it was 250 µM; in assay [3] (setting [5]), 45 µM. Besides, the iNOS/eNOS selectivity in assay [3] was 5.6.
In turn, `COC(=O)[C@@H](Cc1ccccc1)NC(=O)[C@@H](N)CCCNC(=N)N[N+](=O)[O-]` [compound 7, L-Arg^NO2 -D-Phe-OMe] yielded a nNOS/iNOS selectivity in assay [1] of 1.1. In assay [1], this compound yielded a nNOS/eNOS selectivity of 5.7. Further, the Ki in assay [1] (setting [4]) was 92 µM; in assay [2] (Table 2, Dixon plots) it was 525 µM; in assay [3] (setting [5]) it was 100 µM. For the same compound, the iNOS/eNOS selectivity in assay [3] stood at 5.3.
Consider `COC(=O)[C@H](Cc1ccccc1)NC(=O)[C@H](N)CCCNC(=N)N[N+](=O)[O-]` [compound 8, D-Arg^NO2 -L-Phe-OMe], for which the nNOS/iNOS selectivity in assay [1] is recorded as 22.1. Besides, the nNOS/eNOS selectivity in assay [1] worked out at 4.8. Also, the Ki in assay [1] (setting [4]) is 290 µM; in assay [2] (Table 2, Dixon plots), 1400 µM; in assay [3] (setting [5]) it was 6400 µM. For the same compound, in assay [3], the iNOS/eNOS selectivity came out at 0.22.
Compound `COC(=O)[C@@H](Cc1ccccc1)NC(=O)[C@H](N)CCCNC(=N)N[N+](=O)[O-]` [compound 9, D-Arg^NO2 -D-Phe-OMe] came in with a nNOS/iNOS selectivity in assay [1] of 43.3. This compound returned a nNOS/eNOS selectivity in assay [1] of 2.5. In addition, the Ki in assay [1] (setting [4]) stood at 150 µM; in assay [2] (Table 2, Dixon plots), 375 µM; in assay [3] (setting [5]) it was 6500 µM. The iNOS/eNOS selectivity in assay [3] is on record as 0.058.
Turning to `COC(=O)[C@@H](CCCNC(=N)N[N+](=O)[O-])NC(=O)[C@@H](N)Cc1ccccc1` [compound 10, L-Phe-D-Arg^NO2 -OMe] (HELM PEPTIDE1{F.[N=C(NCCC[C@@H](N[*:1])C(=O)[*:2])N[N+](=O)[O-]].[CO[*:1]]}$$$$V2.0), the nNOS/iNOS selectivity in assay [1] came out at 83.3. Further, the nNOS/eNOS selectivity in assay [1] is on record as 1.7. Also, the Ki in assay [1] (setting [4]) stood at 90 µM; in assay [2] (Table 2, Dixon plots), 150 µM; in assay [3] (setting [5]), 7500 µM. Further, the iNOS/eNOS selectivity in assay [3] stood at 0.02.
`COC(=O)[C@H](CCCNC(=N)N[N+](=O)[O-])NC(=O)[C@H](N)Cc1ccccc1` [compound 11, D-Phe-L-Arg^NO2 -OMe] (HELM PEPTIDE1{[dF].[N=C(NCCC[C@H](N[*:1])C(=O)[*:2])N[N+](=O)[O-]].[CO[*:1]]}$$$$V2.0) had a nNOS/iNOS selectivity in assay [1] of 3. The compound also had a nNOS/eNOS selectivity in assay [1] of 21.3. For the same compound, the Ki in assay [1] (setting [4]) turned out to be 400 µM; in assay [2] (Table 2, Dixon plots), 8500 µM; in assay [3] (setting [5]), 1200 µM. Moreover, the iNOS/eNOS selectivity in assay [3] amounted to 7.1.
Turning to `COC(=O)[C@@H](CCCN=C(N)N[N+](=O)[O-])NC(=O)[C@H](N)Cc1ccccc1` [compound 12, D-Phe-D-Arg^NO2 -OMe] (HELM PEPTIDE1{[dF].[N=C(NCCC[C@@H](N[*:1])C(=O)[*:2])N[N+](=O)[O-]].[CO[*:1]]}$$$$V2.0), the nNOS/eNOS selectivity in assay [1] came to 2.5. The “time-dependent inhibition” value in assay [1] is listed as “None”. Moreover, the Ki in assay [1] (setting [4]) was found to be 2 µM; in assay [2] (Table 2, Dixon plots), 5 µM; in assay [3] (setting [5]), 3600 µM. The “selectivity of eNOS over iNOS” value in assay [2] was 714 fold. Moreover, the iNOS/eNOS selectivity in assay [3] stood at 0.0014.
Turning to `N=C(NCCC[C@@H](NC(=O)[C@H](N)Cc1ccccc1)C(=O)O)N[N+](=O)[O-]` [compound 13, D-Phe-D-Arg^NO2] (HELM PEPTIDE1{[dF].[N=C(NCCC[C@@H](N[*:1])C(=O)O)N[N+](=O)[O-]]}$$$$V2.0), in assay [1], the nNOS/iNOS selectivity is listed as 800, the nNOS/eNOS selectivity was found to be 5.3 and the “time-dependent inhibition” value was “None”. Further, in assay [1] (setting [4]), the Ki stood at 17 µM. The Ki in assay [2] (Table 2, Dixon plots) was 90 µM. The “selectivity of eNOS over iNOS” value in assay [2] came to 152 fold. Further, the iNOS/eNOS selectivity in assay [3] is given as 0.0066. The Ki in assay [3] (setting [5]) was 13600 µM.
In general, IC50 refers to the concentration that gives 50% inhibition. On to `CNC(=N)NCCC[C@H](N)C(=O)O` [methyl, N^ω -methyl-L-arginine, reference compound], for which the midpoint of inhibition in assay [1], the IC50, lay at 10 µM. In other words, the double-digit micromolar range.
`C#CCNC(=N)NCCC[C@H](N)C(=O)O` [propargyl, N^ω -propargyl-L-arginine, reference compound]: in assay [1], the Ki was 0.43 µM.
